Patent EP4768484A1, “HETEROCYCLIC FUSED RING COMPOUND, AND COMPOSITION AND USE THEREOF” (Shenzhen TargetRx, Inc., priority 2023, dated 2025)

Tests used:
Format in all cases: cell-based
Ba/F3 BCR-ABL1 P465S = target: T1, Ba/F3 BCR-ABL1 P465S (Homo sapiens, UniProt P00519+P11274, P465S); test: Cell growth inhibitory activity assay (CellTiter-Glo), Ba/F3 BCR-ABL1 P465S cells; settings: 72 h, CTG cell viability
T1 construct: BCR (N-terminal fusion partner of the oncoprotein); expressed in transfected cells; host or cells: Ba/F3 (lentiviral transduction, monoclonal line)
Protocol: (§1) In this assay, the Celltiter-Glo (CTG) kit provided by Promega was used, and it is a homogeneous cell viability assay method. The cell viability of cultured cells was measured by quantifying ATP. K562 cells were purchased from Nanjing Kebai, product number CBP60529; Ba/F3 parental cells were purchased from RIKEN BRC, product number RCB0805; other cells containing BCR-ABL1 WT, BCR-ABL1 T315I, BCR-ABL1 T315M, BCR-ABL1 Y253H/E255K, BCR-ABL1 E255V/T3151, BCR-ABL1 A424T, BCR-ABL1 A337V, BCR-ABL1 P465S, BCR-ABL1 V468F, and BCR-ABL1 I502L were all monoclonal engineered cell lines obtained by transducting Ba/F3 parental cells with the lentivirus plasmids containing WT or corresponding mutated BCR-ABL1.
(§2) The steps of cell viability assay are as follows: • a) Cells in logarithmic growth phase were collected. Cell suspension was prepared and the cells were counted. Concentration of the cells was calculated. • b) The cell suspension was diluted to the required concentration and then added to the middle wells of a 96-well plate, and PBS was added to the edge wells. The wells with no cells and only culture medium were used as blank controls. • c) In addition to the cell plate used for compound analysis, another 96-well plate was prepared as a T0 plate, and 3-6 blank wells and 3-6 cell wells were added. The next day, CTG was used to test the cell viability as the T0 viability value of the cells. • d) The cell plate was incubated at 37 °C in a 5% CO2 incubator overnight. • e) The next day, each concentration of a compound subjected to a gradient dilution was added, and the cell plate was incubated at 37 °C in a 5% CO2 incubator for 72 h. The wells with no compound and only 0.5% DMSO were used as positive controls for cell growth. • f) CTG reagent (CellTiter-Glo kit) was added according to the manufacturer's instructions to test the cell viability value. • g) The plate was read using Biotek cytation3.0 microplate reader and the data were exported. • h) IC50 was calculated using GraphPad Prism 7.0 software.
(§3) The IC50 (half-maximal inhibitory concentration) of the compound was obtained using the following nonlinear fitting formula: Y = Bottom + (Top−Bottom)/(1+10^(∧)((LogIC50−X)*HillSlope)) [formula] • X: Log value of the compound concentration • Y: Inhibition rate (% inhibition) • Top: Maximum response • Bottom: Baseline response • HillSlope: Slope of the curve
(§4) The formula for calculating cell inhibition rate (inhibition rate %) was: [formula]

Ba/F3 BCR-ABL1 WT = target: T2, Ba/F3 BCR-ABL1 WT (Homo sapiens, UniProt P00519+P11274); test: Cell growth inhibitory activity assay (CellTiter-Glo), Ba/F3 BCR-ABL1 WT cells; settings: 72 h, CTG cell viability
T2 construct: BCR (N-terminal fusion partner of the oncoprotein); expressed in transfected cells; host or cells: Ba/F3 (lentiviral transduction, monoclonal line)
Summary of the method: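 Compound dilutions applied for 72 h (37 °C, 5% CO2) to overnight-plated Ba/F3 cells, parental or engineered to express WT/mutant BCR-ABL1. ATP-based CellTiter-Glo luminescence read, referenced to day-0 viability and 0.5% DMSO wells; IC50 fitted by four-parameter logistic curve.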

Ba/F3 BCR-ABL1 A337V = target: T3, Ba/F3 BCR-ABL1 A337V (Homo sapiens, UniProt P00519+P11274, A337V); test: Cell growth inhibitory activity assay (CellTiter-Glo), Ba/F3 BCR-ABL1 A337V cells; settings: 72 h, CTG cell viability
T3 construct: BCR (N-terminal fusion partner of the oncoprotein); expressed in transfected cells; host or cells: Ba/F3 (lentiviral transduction, monoclonal line)
Protocol: as §1, §2, §3, §4

Ba/F3 BCR-ABL1 V468F = target: T4, Ba/F3 BCR-ABL1 V468F (Homo sapiens, UniProt P00519+P11274, V468F); test: Cell growth inhibitory activity assay (CellTiter-Glo), Ba/F3 BCR-ABL1 V468F cells; settings: 72 h, CTG cell viability
T4 construct: BCR (N-terminal fusion partner of the oncoprotein); expressed in transfected cells; host or cells: Ba/F3 (lentiviral transduction, monoclonal line)
Protocol: as §1, §2, §3, §4

K562 cells = test: Cell growth inhibitory activity assay (CellTiter-Glo), K562 cells; settings: Homo sapiens, 72 h, CTG cell viability
Summary of the method: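 Growth inhibition of human K562 cells, sourced from Nanjing Kebai (CBP60529), was assessed with Promega's CellTiter-Glo kit, which measures viability through ATP quantification. Log-phase cells went into the inner wells of 96-well plates, with PBS in edge wells, incubated overnight at 37 °C and 5% CO2, then exposed to serially diluted compound for 72 h.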

Ba/F3 BCR-ABL1 A424T = target: T5, Ba/F3 BCR-ABL1 A424T (Homo sapiens, UniProt P00519+P11274, A424T); test: Cell growth inhibitory activity assay (CellTiter-Glo), Ba/F3 BCR-ABL1 A424T cells; settings: 72 h, CTG cell viability
T5 construct: BCR (N-terminal fusion partner of the oncoprotein); expressed in transfected cells; host or cells: Ba/F3 (lentiviral transduction, monoclonal line)
Protocol: as §1, §2, §3, §4

[1] = target: T6, Ba/F3 BCR-ABL1 E255V/T315I (Homo sapiens, UniProt P00519+P11274, E255V/T315I); test: Cell growth inhibitory activity assay (CellTiter-Glo), Ba/F3 BCR-ABL1 E255V/T315I cells; settings: 72 h, CTG cell viability
T6 construct: BCR (N-terminal fusion partner of the oncoprotein); expressed in transfected cells; host or cells: Ba/F3 (lentiviral transduction, monoclonal line)
Protocol: as §1, §2, §3, §4

Ba/F3 BCR-ABL1 I502L = target: T7, Ba/F3 BCR-ABL1 I502L (Homo sapiens, UniProt P00519+P11274, I502L); test: Cell growth inhibitory activity assay (CellTiter-Glo), Ba/F3 BCR-ABL1 I502L cells; settings: 72 h, CTG cell viability
T7 construct: BCR (N-terminal fusion partner of the oncoprotein); expressed in transfected cells; host or cells: Ba/F3 (lentiviral transduction, monoclonal line)
Protocol: as §1, §2, §3, §4

Ba/F3 BCR-ABL1 T315I = target: T8, Ba/F3 BCR-ABL1 T315I (Homo sapiens, UniProt P00519+P11274, T315I); test: Cell growth inhibitory activity assay (CellTiter-Glo), Ba/F3 BCR-ABL1 T315I cells; settings: 72 h, CTG cell viability
T8 construct: BCR (N-terminal fusion partner of the oncoprotein); expressed in transfected cells; host or cells: Ba/F3 (lentiviral transduction, monoclonal line)
Summary of the method: (§5)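 Growth inhibition is measured in engineered Ba/F3 cells carrying mutant human BCR-ABL1 and in parental Ba/F3. Compounds in dilution series are applied for 72 h, then cellular ATP is quantified with CellTiter-Glo, normalised using a T0 baseline plate, and IC50 derived by nonlinear regression.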

Ba/F3 parental cells = test: Cell growth inhibitory activity assay (CellTiter-Glo), Ba/F3 parental cells; settings: Mus musculus, BaF3, 72 h, CTG cell viability, read-out: IC50 Ba/F3 BCR-ABL1 Parental
Summary of the method: as §5

Ba/F3 BCR-ABL1 T315M = target: T9, Ba/F3 BCR-ABL1 T315M (Homo sapiens, UniProt P00519+P11274, T315M); test: Cell growth inhibitory activity assay (CellTiter-Glo), Ba/F3 BCR-ABL1 T315M cells; settings: 72 h, CTG cell viability
T9 construct: BCR (N-terminal fusion partner of the oncoprotein); expressed in transfected cells; host or cells: Ba/F3 (lentiviral transduction, monoclonal line)
Summary of the method: as §5

[2] = target: T10, Ba/F3 BCR-ABL1 Y253H/E255K (Homo sapiens, UniProt P00519+P11274, E255K/Y253H); test: Cell growth inhibitory activity assay (CellTiter-Glo), Ba/F3 BCR-ABL1 Y253H/E255K cells; settings: 72 h, CTG cell viability
T10 construct: BCR (N-terminal fusion partner of the oncoprotein); expressed in transfected cells; host or cells: Ba/F3 (lentiviral transduction, monoclonal line)
Protocol: as §1, §2, §3, §4

Compound | IC50 (Ba/F3 BCR-ABL1 P465S) [nM] | IC50 (Ba/F3 BCR-ABL1 WT) [nM] | IC50 (Ba/F3 BCR-ABL1 A337V) [nM] | IC50 (Ba/F3 BCR-ABL1 V468F) [nM] | IC50 (K562 cells) [nM] | IC50 (Ba/F3 BCR-ABL1 A424T) [nM] | IC50 [1] [nM] | IC50 (Ba/F3 BCR-ABL1 I502L) [nM] | IC50 (Ba/F3 BCR-ABL1 T315I) [nM] | IC50 (Ba/F3 parental cells) [nM] | IC50 (Ba/F3 BCR-ABL1 T315M) [nM] | IC50 [2] [nM]
CC(C)n1cnc2cc(C(=O)Nc3ccc(OC(F)(F)Cl)cc3)cc(-c3cnc4c(c3)C(=O)N(C)C4)c21 [T-2, N-(4-(chlorodifluoromethoxy)phenyl)-1-isopropyl-7-(6-methyl-5-oxo-6,7-dihydro-5H-pyrrolo[3,4-b]pyridin-3-yl)-1H-benzo[d]imidazole-5-carboxamide] | 50 to 1000 | ≤ 5 | 50 to 1000 | 50 to 1000 | ≤ 5 | 50 to 1000 | 5 to 50 | 50 to 1000 | 5 to 50 | > 1000 | – | –
C[C@@H]1COCc2nc3cc(C(=O)Nc4ccc(OC(F)(F)Cl)cc4)cc(-c4cnc5c(c4)-c4n[nH]cc4C5)c3n21 [T-3, (R)-N-(4-(chlorodifluoromethoxy)phenyl)-6-(2,4-dihydropyrazolo[3',4':3,4]cyclopenta[1,2-b]pyridin-7-yl)-4-methyl-3,4-dihydro-1H-benzo[4,5]imidazo[2,1-c][1,4]oxazine-8-carboxamide] | 5 to 50 | ≤ 5 | 5 to 50 | 5 to 50 | ≤ 5 | 5 to 50 | ≤ 5 | 5 to 50 | ≤ 5 | > 1000 | 50 to 1000 | ≤ 5
C[C@@H]1COCc2nc3cc(C(=O)Nc4ccc(OC(F)(F)Cl)cc4)cc(-c4cnc5c(c4)-c4nn(-c6ccccn6)cc4C5)c3n21 [T-4] | 50 to 1000 | ≤ 5 | 50 to 1000 | 50 to 1000 | ≤ 5 | 5 to 50 | 5 to 50 | 5 to 50 | ≤ 5 | > 1000 | > 1000 | ≤ 5
CN1Cc2ncc(-c3cc(C(=O)Nc4ccc(OC(F)(F)Cl)cc4)cc4c3C(C)(C)C(=O)N4)cc2C1=O [T-7, N-(4-(chlorodifluoromethoxy)phenyl)-3,3-dimethyl-4-(6-methyl-5-oxo-6,7-dihydro-5H-pyrrolo[3,4-b]pyridin-3-yl)-2-oxoindoline-6-carboxamide] | > 1000 | ≤ 5 | > 1000 | 50 to 1000 | ≤ 5 | > 1000 | 5 to 50 | 50 to 1000 | 5 to 50 | > 1000 | – | –
CCn1cc2c(n1)-c1cc(-c3cc(C(=O)Nc4ccc(OC(F)(F)Cl)cc4)cc4nc5n(c34)[C@H](C)COC5)cnc1C2 [T-18, (R)-N-(4-(chlorodifluoromethoxy)phenyl)-6-(2-ethyl-2,4-dihydropyrazolo[3',4':3,4]cyclopenta[1,2-b]pyridin-7-yl)-4-methyl-3,4-dihydro-1H-benzo[4,5]imidazo[2,1-c][1,4]oxazine-8-carboxamide] | 5 to 50 | ≤ 5 | 5 to 50 | 5 to 50 | ≤ 5 | 5 to 50 | ≤ 5 | 5 to 50 | ≤ 5 | > 1000 | > 1000 | ≤ 5
C[C@@H]1CCSc2nc3cc(C(=O)Nc4ccc(OC(F)(F)Cl)cc4)cc(-c4cnc5c(c4)C(=O)N(C)C5)c3n21 [T-20, (R)-N-(4-(chlorodifluoromethoxy)phenyl)-4-methyl-6-(6-methyl-5-oxo-6,7-dihydro-5H-pyrrolo[3,4-b]pyridin-3-yl)-3,4-dihydro-2H-benzo[4,5]imidazo[2,1-b][1,3]thiazine-8-carboxamide] | 50 to 1000 | ≤ 5 | 50 to 1000 | 50 to 1000 | ≤ 5 | 50 to 1000 | 5 to 50 | 5 to 50 | 5 to 50 | > 1000 | > 1000 | 50 to 1000
C[C@@H]1COCc2nc3cc(C(=O)Nc4ccc(OC(F)(F)Cl)cc4)cc(-c4cnc5c(c4)C(=O)N(C)C5)c3n21 [T-21, (R)-N-(4-(chlorodifluoromethoxy)phenyl)-4-methyl-6-(6-methyl-5-oxo-6,7-dihydro-5H-pyrrolo[3,4-b]pyridin-3-yl)-3,4-dihydro-1H-benzo[4,5]imidazo[2,1-c][1,4]oxazine-8-carboxamide] | 50 to 1000 | ≤ 5 | 50 to 1000 | 50 to 1000 | ≤ 5 | 50 to 1000 | 5 to 50 | 5 to 50 | 5 to 50 | > 1000 | > 1000 | 5 to 50
C[C@@H]1COCc2nc3cc(C(=O)Nc4ccc(OC(F)(F)Cl)cc4)cc(-c4cnc5c(c4)-c4nn(-c6ncc(F)cn6)cc4C5)c3n21 [T-68, (R)-N-(4-(chlorodifluoromethoxy)phenyl)-6-(2-(5-fluoropyrimidin-2-yl)-2,4-dihydropyrazolo[3',4':3,4]cyclopenta[1,2-b]pyridin-7-yl)-4-methyl-3,4-dihydro-1H-benzo[4,5]imidazo[2,1-c][1,4]oxazine-8-carboxamide] | 5 to 50 | ≤ 5 | 5 to 50 | 5 to 50 | ≤ 5 | ≤ 5 | – | ≤ 5 | ≤ 5 | > 1000 | ≤ 5 | –
